{
  "source": "ChEMBL document CHEMBL1137681",
  "about": "“Design, synthesis and characterization of N9/N7-substituted 6-aminopurines as VEGF-R and EGF-R inhibitors” (Eur J Med Chem, 2009)",
  "key": {"[1]": {"target": "Insulin receptor-related protein (Homo sapiens) (UniProt P14616)", "sequence (P14616 27-742 limits assumed)": "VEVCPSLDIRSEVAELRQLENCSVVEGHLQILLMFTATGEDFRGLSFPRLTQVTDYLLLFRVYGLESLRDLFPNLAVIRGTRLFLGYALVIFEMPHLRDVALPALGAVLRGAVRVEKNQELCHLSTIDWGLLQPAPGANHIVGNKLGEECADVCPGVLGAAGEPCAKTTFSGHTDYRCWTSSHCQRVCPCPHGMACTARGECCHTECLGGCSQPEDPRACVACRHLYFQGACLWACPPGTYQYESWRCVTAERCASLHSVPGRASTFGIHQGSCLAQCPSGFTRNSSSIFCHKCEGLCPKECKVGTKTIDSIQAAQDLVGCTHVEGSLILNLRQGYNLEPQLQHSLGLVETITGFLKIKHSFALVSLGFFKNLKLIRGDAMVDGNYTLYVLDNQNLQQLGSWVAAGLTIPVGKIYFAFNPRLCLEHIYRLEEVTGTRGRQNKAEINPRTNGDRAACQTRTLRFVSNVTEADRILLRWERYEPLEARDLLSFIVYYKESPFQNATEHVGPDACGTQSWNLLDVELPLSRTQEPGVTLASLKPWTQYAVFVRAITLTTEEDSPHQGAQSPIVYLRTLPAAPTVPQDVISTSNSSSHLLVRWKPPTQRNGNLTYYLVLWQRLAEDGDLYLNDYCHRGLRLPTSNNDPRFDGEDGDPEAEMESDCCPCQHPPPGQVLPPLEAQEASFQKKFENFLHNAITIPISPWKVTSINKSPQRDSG", "sequence (P14616 747-1297 limits assumed)": "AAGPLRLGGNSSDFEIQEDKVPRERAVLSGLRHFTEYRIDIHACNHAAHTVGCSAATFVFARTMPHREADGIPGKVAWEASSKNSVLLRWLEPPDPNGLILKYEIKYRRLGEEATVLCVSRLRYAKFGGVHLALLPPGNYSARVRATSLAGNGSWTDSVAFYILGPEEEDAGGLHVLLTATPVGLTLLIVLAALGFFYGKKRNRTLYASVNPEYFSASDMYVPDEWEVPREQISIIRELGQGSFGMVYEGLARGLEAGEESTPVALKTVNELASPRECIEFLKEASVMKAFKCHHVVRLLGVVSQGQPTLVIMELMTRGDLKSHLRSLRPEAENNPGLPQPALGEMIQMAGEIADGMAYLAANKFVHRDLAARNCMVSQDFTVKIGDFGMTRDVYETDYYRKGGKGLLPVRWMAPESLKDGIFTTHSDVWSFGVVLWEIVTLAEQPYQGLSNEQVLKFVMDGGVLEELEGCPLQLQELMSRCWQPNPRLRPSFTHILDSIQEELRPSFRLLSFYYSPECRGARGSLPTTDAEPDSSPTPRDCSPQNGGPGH", "assay": "Inhibition of IRR at 10 uM"}, "[2]": {"target": "Serine/threonine-protein kinase B-raf (Homo sapiens, UniProt P15056, V600E)", "assay": "Inhibition of BRAF V600E mutant"}, "[3]": {"target": "Vascular endothelial growth factor receptor 2 (Homo sapiens, UniProt P35968)", "assay": "Inhibition of VEGFR2 up to 100 uM"}, "[4]": {"target": "Dual specificity mitogen-activated protein kinase kinase 1 (Oryctolagus cuniculus) (UniProt P29678)", "assay": "Inhibition of rabbit MKK1 at 10 uM"}, "[5]": {"target": "Proto-oncogene tyrosine-protein kinase Src (Gallus gallus) (UniProt P00523)", "assay": "Inhibition of chick SRC at 10 uM"}, "[6]": {"target": "Inhibitor of nuclear factor kappa-B kinase subunit beta (Homo sapiens) (UniProt O14920)", "assay": "Inhibition of IKKb at 10 uM"}, "[7]": {"target": "Insulin receptor-related protein (Homo sapiens) (UniProt P14616)", "assay": "Inhibition of human IRR at 10 uM"}, "[8]": {"target": "Ribosomal protein S6 kinase alpha-3 (Homo sapiens) (UniProt P51812)", "assay": "Inhibition of RSK2 at 10 uM"}, "[9]": {"tested_on": "Serine/threonine-protein kinase Sgk1 (Homo sapiens), O00141 [S422D]", "sequence (O00141 whole entry S422D)": "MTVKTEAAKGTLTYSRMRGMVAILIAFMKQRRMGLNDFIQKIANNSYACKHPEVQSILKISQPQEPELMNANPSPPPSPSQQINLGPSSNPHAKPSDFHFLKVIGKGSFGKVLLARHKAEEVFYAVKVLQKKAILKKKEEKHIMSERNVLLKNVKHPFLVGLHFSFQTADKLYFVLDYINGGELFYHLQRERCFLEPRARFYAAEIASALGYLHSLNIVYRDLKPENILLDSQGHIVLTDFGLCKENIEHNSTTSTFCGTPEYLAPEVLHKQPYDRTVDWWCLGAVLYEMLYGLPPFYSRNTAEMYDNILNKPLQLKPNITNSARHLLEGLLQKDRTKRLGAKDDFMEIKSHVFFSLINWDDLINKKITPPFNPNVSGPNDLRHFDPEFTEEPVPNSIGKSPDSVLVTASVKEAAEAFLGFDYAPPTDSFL", "assay": "Inhibition of SGK1 S422D mutant at 10 uM"}, "[10]": {"target": "Serine/threonine-protein kinase PLK1 (Homo sapiens) (UniProt P53350)", "sequence (P53350 whole entry)": "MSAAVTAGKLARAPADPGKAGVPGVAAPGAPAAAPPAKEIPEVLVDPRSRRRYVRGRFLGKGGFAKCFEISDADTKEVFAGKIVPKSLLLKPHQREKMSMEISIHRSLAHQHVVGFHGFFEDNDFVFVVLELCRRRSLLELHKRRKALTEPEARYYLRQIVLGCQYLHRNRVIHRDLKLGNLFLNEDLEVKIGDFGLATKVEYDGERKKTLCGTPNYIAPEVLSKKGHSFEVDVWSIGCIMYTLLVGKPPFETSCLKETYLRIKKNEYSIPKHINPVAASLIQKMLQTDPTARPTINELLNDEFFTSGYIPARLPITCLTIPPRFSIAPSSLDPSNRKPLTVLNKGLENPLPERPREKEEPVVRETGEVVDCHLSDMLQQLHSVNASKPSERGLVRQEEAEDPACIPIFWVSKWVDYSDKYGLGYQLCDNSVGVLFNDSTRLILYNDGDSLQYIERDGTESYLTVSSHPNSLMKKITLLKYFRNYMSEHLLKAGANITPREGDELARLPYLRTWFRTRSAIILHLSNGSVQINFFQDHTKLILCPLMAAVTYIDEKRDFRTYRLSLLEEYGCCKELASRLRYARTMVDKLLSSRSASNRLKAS", "assay": "Inhibition of human PLK1 at 10 uM"}, "[11]": {"target": "Serine/threonine-protein kinase Chk2 (Homo sapiens) (UniProt O96017)", "assay": "Inhibition of CHK2 at 10 uM"}, "[12]": {"target": "Serine/threonine-protein kinase PLK1 (Homo sapiens) (UniProt P53350)", "assay": "Inhibition of human okadaic acid sensitive PLK1 at 10 uM"}, "[13]": {"target": "Dual specificity tyrosine-phosphorylation-regulated kinase 1A (Rattus norvegicus) (UniProt Q63470)", "assay": "Inhibition of rat DYRK1a at 10 uM"}, "[14]": {"target": "Tyrosine-protein kinase Yes (Homo sapiens) (UniProt P07947)", "assay": "Inhibition of human YES1 at 10 uM"}, "[15]": {"target": "Serine/threonine-protein kinase PAK 4 (Homo sapiens) (UniProt O96013)", "assay": "Inhibition of human PAK4 at 10 uM"}, "[16]": {"target": "Serine/threonine-protein kinase Nek6 (Homo sapiens) (UniProt Q9HC98)", "sequence (Q9HC98 whole entry)": "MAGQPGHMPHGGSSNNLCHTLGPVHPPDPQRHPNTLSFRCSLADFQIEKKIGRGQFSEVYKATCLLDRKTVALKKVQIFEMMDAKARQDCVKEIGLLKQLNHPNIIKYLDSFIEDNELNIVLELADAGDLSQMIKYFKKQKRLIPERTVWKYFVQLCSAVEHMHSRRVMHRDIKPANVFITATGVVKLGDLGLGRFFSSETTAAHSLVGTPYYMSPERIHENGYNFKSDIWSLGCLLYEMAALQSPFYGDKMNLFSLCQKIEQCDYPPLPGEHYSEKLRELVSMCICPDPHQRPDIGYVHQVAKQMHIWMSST", "assay": "Inhibition of NEK6 at 10 uM"}, "[17]": {"target": "3-phosphoinositide-dependent protein kinase 1 (PDPK1) (Homo sapiens) (UniProt O15530)", "assay": "Inhibition of PDK1 (delta 1-51) at 10 uM"}, "[18]": {"target": "Glycogen synthase kinase-3 beta (Homo sapiens) (UniProt P49841)", "assay": "Inhibition of GSK3-beta at 10 uM"}, "[19]": {"target": "Serine/threonine-protein kinase N2 (Homo sapiens) (UniProt Q16513)", "sequence (Q16513 whole entry, looked up)": "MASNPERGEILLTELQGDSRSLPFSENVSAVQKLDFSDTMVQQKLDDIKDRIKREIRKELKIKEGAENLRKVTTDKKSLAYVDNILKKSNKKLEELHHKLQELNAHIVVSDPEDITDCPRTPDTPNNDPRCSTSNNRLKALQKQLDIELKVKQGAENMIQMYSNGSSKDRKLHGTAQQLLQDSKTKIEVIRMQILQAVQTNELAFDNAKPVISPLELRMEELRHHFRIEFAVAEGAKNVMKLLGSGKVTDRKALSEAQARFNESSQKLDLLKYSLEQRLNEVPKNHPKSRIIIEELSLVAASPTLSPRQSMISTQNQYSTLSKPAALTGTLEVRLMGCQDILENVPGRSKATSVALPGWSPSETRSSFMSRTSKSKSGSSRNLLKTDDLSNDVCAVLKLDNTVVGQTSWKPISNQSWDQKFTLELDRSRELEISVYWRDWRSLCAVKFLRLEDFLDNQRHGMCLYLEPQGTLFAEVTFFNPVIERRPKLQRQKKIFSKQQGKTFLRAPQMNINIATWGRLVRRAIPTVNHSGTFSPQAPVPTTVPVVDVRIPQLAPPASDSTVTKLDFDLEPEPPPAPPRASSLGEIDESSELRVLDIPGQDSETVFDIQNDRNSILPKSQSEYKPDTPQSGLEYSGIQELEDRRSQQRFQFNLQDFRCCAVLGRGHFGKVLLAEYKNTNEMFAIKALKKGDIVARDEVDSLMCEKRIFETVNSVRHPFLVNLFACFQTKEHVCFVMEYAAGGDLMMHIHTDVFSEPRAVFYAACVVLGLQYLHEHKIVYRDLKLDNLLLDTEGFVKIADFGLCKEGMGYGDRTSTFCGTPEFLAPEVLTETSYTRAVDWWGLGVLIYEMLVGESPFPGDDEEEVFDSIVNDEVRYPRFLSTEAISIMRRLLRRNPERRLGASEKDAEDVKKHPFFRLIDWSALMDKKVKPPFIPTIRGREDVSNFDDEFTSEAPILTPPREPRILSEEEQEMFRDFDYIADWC", "assay": "Inhibition of PRK2 at 10 uM"}, "[20]": {"target": "Cyclin-dependent kinase 2 (Homo sapiens) (UniProt P24941)", "assay": "Inhibition of CDK2/cyclin A at 10 uM"}, "[21]": {"target": "Aurora kinase B (Homo sapiens, UniProt Q96GD4)", "assay": "Inhibition of Aurora B at 10 uM"}, "[22]": {"target": "Maternal embryonic leucine zipper kinase (Homo sapiens) (UniProt Q14680)", "sequence (Q14680 whole entry, looked up)": "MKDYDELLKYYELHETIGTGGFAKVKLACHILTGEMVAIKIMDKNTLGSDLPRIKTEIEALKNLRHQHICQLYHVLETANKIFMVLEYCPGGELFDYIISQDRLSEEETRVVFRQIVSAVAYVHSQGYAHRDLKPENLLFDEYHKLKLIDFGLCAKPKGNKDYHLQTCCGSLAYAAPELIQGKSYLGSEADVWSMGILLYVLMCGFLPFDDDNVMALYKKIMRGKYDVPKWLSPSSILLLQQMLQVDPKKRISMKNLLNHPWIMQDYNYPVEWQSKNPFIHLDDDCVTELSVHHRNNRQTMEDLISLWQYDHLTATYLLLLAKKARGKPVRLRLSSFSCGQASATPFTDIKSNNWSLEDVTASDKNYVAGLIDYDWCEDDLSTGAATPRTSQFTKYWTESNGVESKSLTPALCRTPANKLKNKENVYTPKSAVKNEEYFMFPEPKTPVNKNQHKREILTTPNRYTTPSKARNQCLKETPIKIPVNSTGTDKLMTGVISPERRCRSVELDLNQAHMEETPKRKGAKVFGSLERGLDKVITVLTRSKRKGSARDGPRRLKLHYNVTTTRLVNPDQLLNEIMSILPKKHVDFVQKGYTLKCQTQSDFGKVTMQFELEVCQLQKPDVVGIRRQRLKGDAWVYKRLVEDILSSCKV", "assay": "Inhibition of human MELK at 10 uM"}, "[23]": {"assay": "Inhibition of PKA at 10 uM"}, "[24]": {"target": "Aurora kinase C (Homo sapiens) (UniProt Q9UQB9)", "assay": "Inhibition of human aurora C at 10 uM"}, "[25]": {"target": "Calcium/calmodulin-dependent protein kinase type 1 (Homo sapiens) (UniProt Q14012)", "assay": "Inhibition of CAMK1 at 10 uM"}, "[26]": {"target": "Mitogen-activated protein kinase 1 (Mus musculus) (UniProt P63085)", "sequence (P63085 whole entry)": "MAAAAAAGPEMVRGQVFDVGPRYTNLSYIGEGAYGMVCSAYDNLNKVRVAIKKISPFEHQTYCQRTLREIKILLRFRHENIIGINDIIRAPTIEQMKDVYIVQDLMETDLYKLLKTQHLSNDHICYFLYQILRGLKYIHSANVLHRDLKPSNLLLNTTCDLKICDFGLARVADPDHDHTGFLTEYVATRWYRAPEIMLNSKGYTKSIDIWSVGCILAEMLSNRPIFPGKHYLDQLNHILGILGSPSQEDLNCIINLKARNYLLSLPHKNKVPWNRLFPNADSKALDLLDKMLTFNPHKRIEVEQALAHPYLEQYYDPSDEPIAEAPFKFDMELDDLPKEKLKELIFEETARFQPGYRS", "assay": "Inhibition of mouse MAPK2 at 10 uM"}, "[27]": {"target": "Mitogen-activated protein kinase 12 (Homo sapiens) (UniProt P53778)", "sequence (P53778 whole entry)": "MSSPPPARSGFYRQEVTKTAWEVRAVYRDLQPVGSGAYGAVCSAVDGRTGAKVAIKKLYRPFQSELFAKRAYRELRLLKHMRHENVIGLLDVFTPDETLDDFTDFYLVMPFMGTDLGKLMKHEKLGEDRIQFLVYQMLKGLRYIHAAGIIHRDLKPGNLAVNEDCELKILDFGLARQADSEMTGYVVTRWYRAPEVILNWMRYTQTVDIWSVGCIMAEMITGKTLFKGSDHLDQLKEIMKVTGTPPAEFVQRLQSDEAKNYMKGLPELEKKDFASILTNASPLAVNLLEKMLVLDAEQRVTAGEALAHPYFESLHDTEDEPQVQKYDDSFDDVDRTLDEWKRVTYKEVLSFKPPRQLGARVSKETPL", "assay": "Inhibition of SAPK3 at 10 uM"}},
  "note": "Active and inactive are the calls of the source. The rule behind the calls is not given here.",
  "data": [
    {"smiles": "Nc1ncnc2c1ncn2CC(=O)c1c[nH]c2ccccc12", "values": [
      {"measurement": "inhibition", "setting": "[1]", "value": 51, "unit": "%"},
      {"measurement": "IC50", "setting": "[2]", "value": 82, "unit": "µM"}
    ]},
    {"smiles": "Nc1ncnc2c1ncn2CC(=O)c1ccccc1", "values": [
      {"measurement": "inhibition", "setting": "[3]", "value": "inactive"}
    ]},
    {"smiles": "Nc1ncnc2ncn(CC(=O)c3c[nH]c4ccccc34)c12", "values": [
      {"measurement": "inhibition", "setting": "[4]", "value": "inactive"},
      {"measurement": "inhibition", "setting": "[5]", "value": "inactive"},
      {"measurement": "inhibition", "setting": "[6]", "value": "inactive"},
      {"measurement": "inhibition", "setting": "[7]", "value": "inactive"},
      {"measurement": "inhibition", "setting": "[8]", "value": "inactive"},
      {"measurement": "inhibition", "setting": "[9]", "value": "inactive"},
      {"measurement": "inhibition", "setting": "[10]", "value": "inactive"},
      {"measurement": "inhibition", "setting": "[11]", "value": "inactive"},
      {"measurement": "inhibition", "setting": "[12]", "value": "inactive"},
      {"measurement": "inhibition", "setting": "[13]", "value": "inactive"},
      {"measurement": "inhibition", "setting": "[14]", "value": "inactive"},
      {"measurement": "inhibition", "setting": "[15]", "value": "inactive"},
      {"measurement": "inhibition", "setting": "[16]", "value": "inactive"},
      {"measurement": "inhibition", "setting": "[17]", "value": "inactive"},
      {"measurement": "inhibition", "setting": "[18]", "value": "inactive"},
      {"measurement": "inhibition", "setting": "[19]", "value": "inactive"},
      {"measurement": "inhibition", "setting": "[20]", "value": "inactive"},
      {"measurement": "inhibition", "setting": "[21]", "value": "inactive"},
      {"measurement": "inhibition", "setting": "[22]", "value": "inactive"},
      {"measurement": "inhibition", "setting": "[23]", "value": "inactive"},
      {"measurement": "inhibition", "setting": "[24]", "value": "inactive"},
      {"measurement": "inhibition", "setting": "[25]", "value": "inactive"},
      {"measurement": "inhibition", "setting": "[26]", "value": "inactive"},
      {"measurement": "inhibition", "setting": "[27]", "value": "inactive"}
    ]}
  ]
}
